Structures can show the parent of a compound that is named as a salt.

One experiment has as its system Pyocyanin. The experiment can be described thus: Pyocyanin Inhibition Assay. To be noted: Pseudomonas aeruginosa, PA14, 24 h, read-out: Pyocyanin Inhibition No. IC50 (μM). The experiment is classed as cell-based, P. aeruginosa, strain PA14. On the procedure:
Test compounds are dissolved in DMSO at 10 mM and stored at −20° C. until needed. Seven test concentrations from 0.0032 micromolar to 31.6 micromolar are used for each compound.
P. aeruginosa, strain PA14, is inoculated into 5 mL of LB broth in a 15-mL sterile glass culture tube and incubated overnight at 37° C. under shaking (˜240 rpm). The overnight culture is then diluted in LB Broth to give an OD600=0.04 (T0 culture). Colony Forming Units (CFU)/mL of the overnight culture and T0 culture are determined by a series of 1:10 serial dilutions in sterile saline. 4×20 μL of each dilution is seeded on LB agar plates and incubated at 35±2° C. for 20 hours. CFU/mL is determined from the dilution that gives 2 to 50 colonies/20 μL.
For concentration response curve (CRC) experiments, internal standard, 2-((5-nitro-1H-indol-2-yl)thio)-N-(4-phenoxyphenyl)acetamide, a compound previously identified as an MvfR inhibitor (see Example 1 of US 2014-0066454 (WO 2012/116010)), and test compounds are serially diluted in DMSO to 200 times each final concentration (0.5% DMSO fmal), and 1 μL/well is dispensed in duplicate into 2 mL wells of a 96-well deep well plate. 200 μL/well of T0 culture are added to each internal standard/test compound well. Wells containing only T0 culture (200 200 μL/well) are used to determine pyocyanin control level and wells containing only LB broth (blank wells) are also included in the plate.
The plate is sealed and incubated at 37° C. under shaking (˜700 rpm) using a microtiter shaker for 24 hours. At the end of the incubation period, the plate is centrifuged at 4,000 g for 40 minutes at room temperature, 100 μL/well of the supernatant is transferred to a 96-microtiter PS flat-bottom plate, and absorbance at 690 nm is determined using SPECTROstar® Nano microplate reader. Pyocyanin concentration (M) is determined using the equation C=A690/(ε×d), where ε is the Pyocyanin extinction coefficient, at A690 nm ε is 4,310 M^−1 cm^−1 and d is the experimentally derived pathlength. The level of pyocyanin in the presence of test compound is expressed as percentage of inhibition with respect to the control. Curve fitting and IC50 determination were carried out using a four-parameter logistic model using GraphPad Prism v.5.

A further experiment deals with PQS. Description: PQS Inhibition Assay (24 Hour Incubation). The experiment is classed as cell-based, P. aeruginosa PA14 wild-type strain. To be noted: Pseudomonas aeruginosa, PA14, 24 h, read-out: PQS (24 hr) IC50 (μM). On the procedure: Test compounds are dissolved in DMSO at 10 mM and stored at −20° C. until needed. Seven test concentrations from 0.0032 micromolar to 31.6 micromolar are used for each compound. P. aeruginosa PA14 wild-type strain is inoculated into 5 mL LB broth in a 15-mL sterile glass culture tube and incubated overnight at 37° C. under shaking (˜240 rpm). The overnight culture is then diluted in LB Broth to give an OD600=0.04 (T0 culture). Colony Forming Units (CFU)/mL of the overnight culture and T0 culture are determined by a series of 1:10 serial dilutions in sterile saline. 4×20 μL of each dilution is seeded on LB agar plates and incubated at 35±2° C. for 20 hours. CFU/mL is determined from the dilution that gives 2 to 50 colonies/20 μL.
For concentration response curve (CRC) experiments, internal standard (2-((5-nitro-1H-indol-2-yl)thio)-N-(4-phenoxyphenyl)acetamide)) and test compounds are serially diluted in DMSO to give 200 times of each final concentration (0.5% DMSO final), and 1 μL/well is dispensed in duplicate into 2-mL wells of a 96 well deep well plate. 200 μL/well of T0 culture is added to each internal standard/test compound well used to determine PQS control level. Wells containing only LB broth (blank wells) are also included in the plate.
The plate is sealed and incubated at 37° C. for 24 hours under shaking (˜700 rpm) using a microtiter shaker. At the end of the incubation period, 150 μL/well of the deep well plate culture are transferred in a new non-sterile plate, and 150 μL/well of methanol containing tetra-deuterated PQS (D4-PQS) and 2% acetic acid are added to each well. The plate is sealed, shaken at high speed for 5 minutes and centrifuged at 4,000 g for 40 minutes at room temperature. 100 μL/well of the supernatant is then transferred to glass vials (vials crimp 0.2 mL) and kept at 4° C. until LC-MS/MS analysis.
PQSs quantification is carried out by analyzing samples in discrete batches together with spiked standards and blank samples.
Calibration curves are constructed from PQS standards, and respective deuterated PQS is used as an Internal Standards (IS) to calculate the concentration of analytes in the sample and improve the precision of the assay. The back-calculated concentrations of the calibration standards from the calibration curve shall be within ±20% of the nominal values, the range of the analytical method is determined, and the lower and upper limit of quantification specified.
Liquid chromatography separations are performed using an Agilent HP1100 system (Agilent Technologies) coupled with a CTC PAL Autosampler (CTC Analytics AG). Chromatographic retention is obtained using a monolithic column (Chromolith® RP-18, 50×4.6 mm). The solvent system consists of water containing 0.1% (v/v) formic acid (A) and acetonitrile containing 0.1% (v/v) formic acid (B). The gradient elution profile is chosen as follows: 0 min: 70% A (1500 μL/min), 0.3 min: 70% A (1500 μL/min), 1.3 min: 5% A (2500 μL/min), 1.6 min: 5% A (2500 μL/min).
The MS/MS analysis is performed with an API4000 series mass spectrometer (AB Sciex™) operating in Multiple Reaction Monitoring (MRM) mode and equipped with a TIS ion source. The specific ions monitored are PQS (m/z 260→m/z 175) and D4-PQS (m/z 264→m/z 179). The computer systems used in this study to acquire and quantify data may be an Analyst™ v1.5.
PQS in the presence of different concentrations of test compound are expressed as percentage of inhibition of the basal level in control samples. Curve fitting and IC50 estimations are carried out using a four parameter logistic model using GraphPad Prism v.5 program.

By IC50 is commonly meant the concentration at which inhibition is half-maximal. As to `Cn1c(SCC(=O)Nc2ccc(Oc3ccccc3)cc2)nc2cc([N+](=O)[O-])ccc21` [Compound 23], the IC50 in the experiment on Pyocyanin is 1 to 10 µM; with PQS, greater than 10 µM.

As to `N#Cc1ccc(NC(=O)CNc2nc3cc(Cl)ccc3s2)cc1` [Compound 72, 2-(5-Chlorobenzo[d]thiazol-2-ylamino)-N-(4-cyanophenyl)acetamide], the IC50 in the experiment with Pyocyanin and in the experiment on PQS was greater than 10 µM each time.

In the case of `O=C(CNc1nc2ccc(Cl)cc2s1)Nc1ccc(Oc2cccnc2)cc1` [Compound 73, 2-((6-chlorobenzo[d]thiazol-2-yl)amino)-N-(4-(pyridin-3-yloxy)phenyl)acetamide], the IC50 in the experiment on Pyocyanin and with PQS was greater than 10 µM in each case.

For the molecule `N#Cc1ccc(NC(=O)CNc2nc3cc(Cl)ccc3o2)cc1` [Compound 75, 2-((5-chlorobenzo[d]oxazol-2-yl)amino)-N-(4-cyanophenyl)acetamide], the IC50 in the experiment on Pyocyanin and in the experiment on PQS was greater than 10 µM throughout.

Take `O=C(CSc1nc2cc(Cl)ccc2[nH]1)Nc1ccc(Oc2ccncc2)cc1` [Compound 76, 2-((5-chloro-1H-benzo[d]imidazol-2-yl)thio)-N-(4-(pyridin-4-yloxy)phenyl)acetamide]: the IC50 with Pyocyanin is less than 0.1 µM; in the experiment with PQS, less than 1 µM.

Regarding `O=C(CSc1nc2cc(Cl)ccc2[nH]1)Nc1ccc(Oc2cnccn2)cc1` [Compound 78, 2-((5-chloro-1H-benzo[d]imidazol-2-yl)thio)-N-(4-(pyrazin-2-yloxy)phenyl)acetamide], the IC50 in the experiment with Pyocyanin was less than 0.1 µM; in the experiment on PQS, less than 1 µM.

With `Cc1ccc(Oc2ccc(NC(=O)CSc3nc4cc(Cl)ccc4[nH]3)cc2)cn1` [Compound 80, 2-((5-chloro-1H-benzo[d]imidazol-2-yl)thio)-N-(4-((6-methylpyridin-3-yl)oxy)phenyl)acetamide], the IC50 is less than 0.1 µM with Pyocyanin and less than 1 µM in the experiment on PQS.

With `Cc1cncc(Oc2ccc(NC(=O)CSc3nc4cc(Cl)ccc4[nH]3)cc2)c1` [Compound 81, 2-(5-Chloro-1H-benzo[d]imidazol-2-ylthio)-N-(4-(5-methylpyridin-3-yloxy)phenyl)acetamide], the IC50 is less than 0.1 µM with Pyocyanin and less than 1 µM with PQS.

With `O=C(NCCSc1nc2cc(Cl)ccc2[nH]1)c1ccc(Oc2cccnc2)cc1` [Compound 87, N-(2-((5-chloro-1H-benzo[d]imidazol-2-yl)thio)ethyl)-4-(pyridin-3-yloxy)benzamide], the IC50 with Pyocyanin and in the experiment with PQS was greater than 10 µM each time.

As to `N#Cc1ccc(C(=O)NCCSc2nc3cc(Cl)ccc3[nH]2)cc1` [Compound 88, N-(2-((5-chloro-1H-benzo[d]imidazol-2-yl)thio)ethyl)-4-cyanobenzamide], the IC50 in the experiment with Pyocyanin and in the experiment with PQS was greater than 10 µM each time.

Consider `N#Cc1ccc(NC(=O)CSc2cc3cc(Cl)ccc3[nH]2)cc1` [Compound 90, 2-((5-Chloro-1H-indol-2-yl)thio)-N-(4-cyanophenyl)acetamide], for which the IC50 is 1 to 10 µM in the experiment on Pyocyanin and greater than 10 µM with PQS.

In the case of `O=S(=O)(CSc1nc2cc(Cl)ccc2[nH]1)Nc1ccc(Oc2cccnc2)cc1` [Compound 91, 1-((5-chloro-1H-benzo[d]imidazol-2-yl)thio)-N-(4-(pyridin-3-yloxy)phenyl)methanesulfonamide], the IC50 with Pyocyanin and in the experiment on PQS was greater than 10 µM in each case.

On to `O=C(CCc1nc2ccc(Cl)cc2o1)Nc1ccc(Oc2cccnc2)cc1` [Compound 92, 3-(6-chlorobenzo[d]oxazol-2-yl)-N-(4-(pyridin-3-yloxy)phenyl)propanamide], for which the IC50 in the experiment with Pyocyanin and in the experiment on PQS was greater than 10 µM throughout.

For the molecule `O=C(CSc1nc2cc(OC(F)F)ccc2[nH]1)Nc1ccc(Cl)cc1` [Compound 95], the IC50 is 1 to 10 µM in the experiment on Pyocyanin and greater than 10 µM in the experiment on PQS.

With `N#Cc1ccc(NC(=O)CSc2nc3cc(C(=O)O)ccc3[nH]2)cc1` [Compound 106], the IC50 in the experiment with Pyocyanin and in the experiment on PQS was greater than 10 µM in each case.

For the molecule `COC(=O)c1ccc2[nH]c(SCC(=O)Nc3ccc(C#N)cc3)nc2c1` [Compound 112], the IC50 in the experiment with Pyocyanin and in the experiment with PQS was greater than 10 µM in each case.

Take `N#Cc1ccc(NC(=O)CSc2nc3ccc(-c4ncccn4)cc3[nH]2)cc1` [Compound 113]: the IC50 in the experiment on Pyocyanin and with PQS was greater than 10 µM throughout.

As for `N#Cc1ccc(NC(=O)CSc2nc3ccc(-n4cccn4)cc3[nH]2)cc1` [Compound 117], the concentration for half-maximal inhibition (IC50) was 1 to 10 µM in the experiment with Pyocyanin and greater than 10 µM in the experiment on PQS.

`O=C(CCc1nc2ccc([N+](=O)[O-])cc2[nH]1)Nc1ccc(Cl)cc1` [Compound 134, N-(4-chlorophenyl)-3-(6-nitro-1H-benzo[d]imidazol-2-yl)propanamide hydrochloride]: the values for the 50% inhibitory concentration (IC50) in the experiment with Pyocyanin and with PQS were 1 to 10 µM and 1 to 5 µM, respectively.

Turning to `CN(C)C(=O)Oc1ccc2[nH]c(SCC(=O)Nc3ccc(C#N)cc3)nc2c1` [Compound 135], the concentration for half-maximal inhibition (IC50) with Pyocyanin and with PQS was greater than 10 µM in each case.

As for `CN(C)C(=O)Oc1ccc2[nH]c(SCC(=O)Nc3ccc(Cl)cc3)nc2c1` [Compound 136], the IC50 in the experiment on Pyocyanin and with PQS was greater than 10 µM each time.

As for `N#Cc1cccc(NC(=O)CSc2nc3cc(Cl)ccc3[nH]2)c1` [Compound 138], the IC50 in the experiment on Pyocyanin and in the experiment on PQS was greater than 10 µM each time.

With `O=C(CSc1nc2cc(Cl)ccc2[nH]1)Nc1ccc2c(c1)OCO2` [Compound 139], the IC50 was 1 to 10 µM with Pyocyanin and greater than 10 µM with PQS.

`COc1ccc(NC(=O)CSc2nc3c(Cl)cc(Cl)cc3[nH]2)cc1` [Compound 141]: the IC50 in the experiment on Pyocyanin is 1 to 10 µM; with PQS, greater than 10 µM.

For `COc1ccc(NC(=O)CSc2nc3ccc(Cl)cc3[nH]2)cc1Cl` [Compound 143], the results for the IC50 with Pyocyanin and with PQS were 1 to 10 µM and 5 to 10 µM, respectively.

Turning to `O=C(CSc1nc2ccc(Cl)cc2[nH]1)Nc1ccc(F)cc1F` [Compound 144], the IC50 was 1 to 10 µM in the experiment with Pyocyanin and greater than 10 µM with PQS.

The values above are taken from US9643933B2, “Compounds useful as antibiotic tolerance inhibitors” (priority 2013, dated 2017).
